inhibition, IC50 and Kd data for three molecules are collected here from ChEMBL document CHEMBL5338724, “METTL3 from Target Validation to the First Small-Molecule Inhibitors: A Medicinal Chemistry Journey” (J Med Chem, 2023).

Assay [1] addresses Histone-lysine N-methyltransferase 2B (Homo sapiens) (UniProt Q9UMN6). The assay is described as follows: Inhibition of MLL4 (unknown origin) at 10 uM relative to control.
Assay [2] addresses T1, METTL3/METTL14 (Homo sapiens, UniProt Q86U44). In words: Inhibition of METTL3/METTL14 (unknown origin) by bioluminescence assay. The class given is protein-complex assay.
The target in assay [3] is Histone-lysine N-methyltransferase PRDM9 (Homo sapiens) (UniProt Q9NQV7). In words: Inhibition of PRDM9 (unknown origin) at 10 uM relative to control.
Chain of Histone-lysine N-methyltransferase PRDM9 (Homo sapiens) (Q9NQV7 whole entry): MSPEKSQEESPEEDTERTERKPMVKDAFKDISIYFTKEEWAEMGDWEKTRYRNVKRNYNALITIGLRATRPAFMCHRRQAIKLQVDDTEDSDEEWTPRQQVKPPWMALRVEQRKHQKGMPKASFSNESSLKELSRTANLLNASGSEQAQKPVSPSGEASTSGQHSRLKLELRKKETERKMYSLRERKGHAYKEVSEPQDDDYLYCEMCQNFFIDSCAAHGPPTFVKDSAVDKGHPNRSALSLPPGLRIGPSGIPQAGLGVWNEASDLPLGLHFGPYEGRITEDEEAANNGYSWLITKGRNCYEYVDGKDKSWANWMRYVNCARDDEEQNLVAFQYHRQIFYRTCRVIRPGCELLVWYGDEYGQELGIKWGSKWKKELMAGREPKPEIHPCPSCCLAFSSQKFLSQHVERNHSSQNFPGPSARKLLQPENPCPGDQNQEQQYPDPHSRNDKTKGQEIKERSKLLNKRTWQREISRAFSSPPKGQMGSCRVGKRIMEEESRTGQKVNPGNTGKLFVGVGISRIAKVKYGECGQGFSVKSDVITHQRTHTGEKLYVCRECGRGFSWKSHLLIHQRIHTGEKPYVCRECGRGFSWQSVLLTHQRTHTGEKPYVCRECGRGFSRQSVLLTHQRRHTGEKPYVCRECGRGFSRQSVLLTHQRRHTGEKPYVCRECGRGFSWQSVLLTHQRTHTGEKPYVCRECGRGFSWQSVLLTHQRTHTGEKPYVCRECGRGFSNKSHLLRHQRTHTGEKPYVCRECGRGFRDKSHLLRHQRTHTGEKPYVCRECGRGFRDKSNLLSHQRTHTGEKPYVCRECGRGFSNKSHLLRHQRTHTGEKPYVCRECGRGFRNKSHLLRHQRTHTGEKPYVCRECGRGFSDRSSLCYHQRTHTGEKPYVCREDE
Assay [4] concerns the target T1, METTL3/METTL14. The assay is described as follows: Inhibition of METTL3/METTL14 (unknown origin) using RNA 5'-GGACUGGACUGGACU-3' as substrate incubated for 2 hrs by LC-MS/MS analysis. It is filed as protein-complex assay.
Assay [5] relates to MIA PaCa-2. The assay is described as follows: cells. To be noted: Homo sapiens, MIA PaCa-2, 72 h.
Description: Antiproliferative activity against human MIA PaCa-2 cells assessed as reduction in cell viability incubated for 72 hrs by CCK-8 assay
Assay [6] deals with Huh-7. In words: cells. The settings on record: Homo sapiens, Huh-7, 72 h.
Description: Antiproliferative activity against human Huh-7 cells assessed as reduction in cell viability incubated for 72 hrs by CCK-8 assay
For assay [7], the target named is N6-adenosine-methyltransferase catalytic subunit (Homo sapiens, UniProt Q86U44).
Chain of N6-adenosine-methyltransferase catalytic subunit (Q86U44 whole entry): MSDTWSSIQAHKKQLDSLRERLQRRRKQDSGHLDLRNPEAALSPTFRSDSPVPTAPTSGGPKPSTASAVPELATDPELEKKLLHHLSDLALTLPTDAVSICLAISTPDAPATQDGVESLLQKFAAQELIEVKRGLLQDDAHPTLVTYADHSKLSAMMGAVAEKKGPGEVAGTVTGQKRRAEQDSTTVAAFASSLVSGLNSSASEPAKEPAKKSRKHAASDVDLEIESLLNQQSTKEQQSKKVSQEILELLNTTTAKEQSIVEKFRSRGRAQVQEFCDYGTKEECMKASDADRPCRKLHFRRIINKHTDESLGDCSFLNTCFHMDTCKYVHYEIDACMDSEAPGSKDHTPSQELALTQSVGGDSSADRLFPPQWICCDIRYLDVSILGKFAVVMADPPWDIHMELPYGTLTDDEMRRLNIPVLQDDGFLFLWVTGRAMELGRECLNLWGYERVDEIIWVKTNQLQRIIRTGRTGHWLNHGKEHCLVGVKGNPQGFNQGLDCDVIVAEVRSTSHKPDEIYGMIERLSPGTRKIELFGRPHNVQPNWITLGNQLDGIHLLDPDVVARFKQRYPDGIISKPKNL
Description: Binding affinity to METTL3 (unknown origin) assessed as dissociation constant by SPR analysis

T1 sequence (Q86U44 whole entry): as above
T1 sequence (Q9HCE5 whole entry, further chain): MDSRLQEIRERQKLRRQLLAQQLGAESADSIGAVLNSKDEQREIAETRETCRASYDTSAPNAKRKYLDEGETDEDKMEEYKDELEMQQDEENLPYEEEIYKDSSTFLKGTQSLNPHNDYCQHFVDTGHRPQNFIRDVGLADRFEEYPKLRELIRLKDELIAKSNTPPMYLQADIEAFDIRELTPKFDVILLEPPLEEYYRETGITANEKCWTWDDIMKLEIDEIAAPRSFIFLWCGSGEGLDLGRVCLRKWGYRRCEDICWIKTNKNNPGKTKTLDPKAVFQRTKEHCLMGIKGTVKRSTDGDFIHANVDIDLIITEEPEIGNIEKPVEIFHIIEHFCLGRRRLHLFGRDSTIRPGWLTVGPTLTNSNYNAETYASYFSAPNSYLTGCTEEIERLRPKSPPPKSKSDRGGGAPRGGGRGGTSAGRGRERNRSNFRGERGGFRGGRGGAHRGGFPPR
Chain of Histone-lysine N-methyltransferase 2B (Homo sapiens) (Q9UMN6 whole entry): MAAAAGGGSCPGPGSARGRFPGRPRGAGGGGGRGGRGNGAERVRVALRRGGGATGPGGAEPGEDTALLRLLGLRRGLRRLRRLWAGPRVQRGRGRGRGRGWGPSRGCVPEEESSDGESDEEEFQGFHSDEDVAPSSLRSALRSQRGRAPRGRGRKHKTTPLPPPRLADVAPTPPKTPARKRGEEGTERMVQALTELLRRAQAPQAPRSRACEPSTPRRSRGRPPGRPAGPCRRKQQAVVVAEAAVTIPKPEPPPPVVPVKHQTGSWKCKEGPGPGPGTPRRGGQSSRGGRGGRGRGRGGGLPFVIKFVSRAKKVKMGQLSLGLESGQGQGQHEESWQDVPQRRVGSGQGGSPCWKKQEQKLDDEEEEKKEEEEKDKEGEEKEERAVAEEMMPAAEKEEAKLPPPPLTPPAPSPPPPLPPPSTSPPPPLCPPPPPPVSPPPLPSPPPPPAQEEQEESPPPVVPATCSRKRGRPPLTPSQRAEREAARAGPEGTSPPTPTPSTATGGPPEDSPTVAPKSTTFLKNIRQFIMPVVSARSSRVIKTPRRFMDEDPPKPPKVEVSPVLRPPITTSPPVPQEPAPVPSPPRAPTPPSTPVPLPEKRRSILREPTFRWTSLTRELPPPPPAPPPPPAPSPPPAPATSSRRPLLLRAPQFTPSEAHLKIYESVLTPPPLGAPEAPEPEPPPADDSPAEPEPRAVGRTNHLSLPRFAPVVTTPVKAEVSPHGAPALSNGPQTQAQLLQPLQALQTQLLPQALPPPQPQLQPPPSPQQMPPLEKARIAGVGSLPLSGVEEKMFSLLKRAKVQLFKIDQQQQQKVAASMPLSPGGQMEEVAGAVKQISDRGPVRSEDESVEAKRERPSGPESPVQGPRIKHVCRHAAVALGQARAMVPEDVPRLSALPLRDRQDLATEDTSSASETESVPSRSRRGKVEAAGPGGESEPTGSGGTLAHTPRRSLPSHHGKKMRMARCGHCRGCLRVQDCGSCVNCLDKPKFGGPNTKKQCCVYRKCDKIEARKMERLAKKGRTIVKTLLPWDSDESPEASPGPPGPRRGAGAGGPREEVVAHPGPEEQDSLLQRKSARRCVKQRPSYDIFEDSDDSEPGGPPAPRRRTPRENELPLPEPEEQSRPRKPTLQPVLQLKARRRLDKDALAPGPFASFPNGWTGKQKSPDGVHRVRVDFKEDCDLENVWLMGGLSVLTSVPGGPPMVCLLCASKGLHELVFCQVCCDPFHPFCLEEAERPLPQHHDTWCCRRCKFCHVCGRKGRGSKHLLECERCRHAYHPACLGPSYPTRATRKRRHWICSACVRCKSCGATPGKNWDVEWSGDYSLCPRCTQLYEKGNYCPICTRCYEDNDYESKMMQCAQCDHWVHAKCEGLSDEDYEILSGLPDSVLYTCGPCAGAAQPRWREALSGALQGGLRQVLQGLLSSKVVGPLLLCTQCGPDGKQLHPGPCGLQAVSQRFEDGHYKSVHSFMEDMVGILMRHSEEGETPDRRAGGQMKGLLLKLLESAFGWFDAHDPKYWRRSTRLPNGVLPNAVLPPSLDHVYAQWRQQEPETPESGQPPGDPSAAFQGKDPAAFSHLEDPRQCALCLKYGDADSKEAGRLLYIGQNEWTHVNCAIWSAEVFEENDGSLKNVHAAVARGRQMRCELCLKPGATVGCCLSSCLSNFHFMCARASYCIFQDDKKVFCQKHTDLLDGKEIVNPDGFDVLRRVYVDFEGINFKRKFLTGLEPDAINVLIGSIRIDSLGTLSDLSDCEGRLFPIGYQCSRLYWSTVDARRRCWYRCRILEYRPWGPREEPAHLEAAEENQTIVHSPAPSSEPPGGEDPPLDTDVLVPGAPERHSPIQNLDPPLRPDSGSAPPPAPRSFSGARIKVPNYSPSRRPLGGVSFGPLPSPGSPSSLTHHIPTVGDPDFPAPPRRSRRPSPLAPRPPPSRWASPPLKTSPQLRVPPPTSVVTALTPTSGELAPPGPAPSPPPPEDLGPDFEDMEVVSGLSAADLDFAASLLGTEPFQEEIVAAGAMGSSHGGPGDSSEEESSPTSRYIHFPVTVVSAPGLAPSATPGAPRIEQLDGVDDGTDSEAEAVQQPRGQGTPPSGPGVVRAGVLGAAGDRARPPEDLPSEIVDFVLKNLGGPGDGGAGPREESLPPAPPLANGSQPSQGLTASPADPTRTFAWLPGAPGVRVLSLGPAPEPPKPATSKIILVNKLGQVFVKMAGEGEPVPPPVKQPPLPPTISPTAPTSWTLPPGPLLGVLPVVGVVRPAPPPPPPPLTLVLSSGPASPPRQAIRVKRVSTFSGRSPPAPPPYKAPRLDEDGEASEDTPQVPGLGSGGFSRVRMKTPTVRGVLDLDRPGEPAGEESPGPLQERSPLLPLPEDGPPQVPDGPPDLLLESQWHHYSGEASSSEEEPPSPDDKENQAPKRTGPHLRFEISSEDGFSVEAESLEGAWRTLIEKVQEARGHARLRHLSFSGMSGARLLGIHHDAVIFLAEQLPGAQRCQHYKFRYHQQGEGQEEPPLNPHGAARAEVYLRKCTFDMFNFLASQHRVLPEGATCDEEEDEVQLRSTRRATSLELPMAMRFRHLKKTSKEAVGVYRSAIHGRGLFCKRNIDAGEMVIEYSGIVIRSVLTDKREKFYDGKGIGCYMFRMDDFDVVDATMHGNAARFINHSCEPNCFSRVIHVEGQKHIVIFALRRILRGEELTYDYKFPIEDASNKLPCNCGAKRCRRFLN

On to `CC1=NN(c2ccc(C)c(C)c2)C(=O)/C1=N\Nc1cccc(-c2cccc(C(=O)O)c2)c1O` [ELTROMBOPAG], for which the inhibition in assay [1] came to 29%; in assay [3], 30%. This molecule also showed an IC50 in assay [2] of 3.65 µM.

For `O=c1c(O)c(-c2ccc(O)c(O)c2)oc2cc(O)cc(O)c12` [QUERCETIN], the IC50 is 2.73 µM in assay [4], 73.5 µM in assay [5] and 100 µM in assay [6].

As to `COc1cc2c(cc1Cc1cccc(Cl)c1F)c(=O)c(C(=O)O)cn2[C@H](CO)C(C)C`, in assay [7], binding was characterised by a dissociation constant (Kd) of 0.00479 µM.

The inhibition is the relative decrease from the control value, in per cent. High values mean a response far below the control, low ones a response near the control. Usually IC50 stands for the concentration needed to halve the response being measured. A higher IC50 goes with weaker potency. One may read the Kd as the constant that tells how readily two partners part at equilibrium.
